Assay: solvent given as SMILES

C[Si]1(C)c2cc(-c3ccc(N(c4ccccc4)c4ccccc4)cc3)ccc2C=Cc2ccc(-c3ccc(N(c4ccccc4)c4ccccc4)cc3)cc21
absorption maximum (in ClCCl): 435 nm

CCc1ccccc1-c1c2ccccc2c(C#Cc2ccccc2)c2cc3ccccc3cc12
absorption maximum (in ClCCl): 522 nm

C[Si]1(C)C2=C(c3ccc(N(c4ccccc4)c4ccccc4)cc31)P(=O)(c1ccccc1)c1ccccc12 (stereo unspecified)
absorption maximum (in CC#N): 440 nm | absorption maximum (in CO): 452 nm | absorption maximum (in Cc1ccccc1): 446 nm

CC1=C(C#Cc2ccc(N(c3ccccc3)c3ccccc3)cc2)C(C)=[N+]2C1=C(c1ccccc1)c1c(C)c(C#Cc3ccc(N(c4ccccc4)c4ccccc4)cc3)c(C)n1[B-]2(F)F
absorption maximum (in C1CCOC1): 593 nm

Cc1cc(C)c(C2=C3C=C(/C=C/C(=O)OCc4ccccc4)C=[N+]3[B-](F)(F)n3cc(/C=C/C(=O)OCc4ccccc4)cc32)c(C)c1
absorption maximum (in ClCCl): 576 nm

CCCCC(CC)Cn1c2cc(C#N)ccc2c2ccc(C#Cc3ccc4ccc5c(C#Cc6ccc7c8ccc(C#N)cc8n(CC(CC)CCCC)c7c6)cc(C#Cc6ccc7c8ccc(C#N)cc8n(CC(CC)CCCC)c7c6)c6ccc3c4c56)cc21 (stereo unspecified)
absorption maximum (in ClCCl): 447 nm

CCCN1c2ccccc2Sc2cc(/C=C\c3cc(=O)oc4ccc(C)cc34)ccc21
absorption maximum (in ClC(Cl)Cl): 423 nm

Cc1nnc(-c2cc(-c3nnc(C)o3)c(-n3c4ccccc4c4ccccc43)cc2-n2c3ccccc3c3ccccc32)o1
absorption maximum (in Cc1ccccc1): 359 nm

O=P1(c2ccccc2)C(c2ccccc2)=Cc2cc3ccccc3cc21 (stereo unspecified)
absorption maximum (in ClCCl): 387 nm

c1ccc2c(c1)oc1nc3oc4ccc(-n5c6ccccc6c6ccccc65)cc4c3cc12
absorption maximum (in ClC(Cl)Cl): 346 nm

Cc1cc(N(C)C)ccc1C1=C2C=CC(=[N+](C)C)C=C2[Si](C)(C)c2cc(N(C)C)ccc21
absorption maximum (in O): 646 nm

C(=C\c1cc(/C=C/c2ccccc2)cc(/C=C/c2ccccc2)c1)/c1ccccc1
absorption maximum (in ClCCl): 317 nm

CN(/N=C1\N=C(N)C2(CCCC2)c2ccccc21)c1ccccc1
absorption maximum (in ClCCl): 378 nm

O=c1oc2ccccc2c2c1c(=O)oc1cc(O)c3ccccc3c12
absorption maximum (in CS(C)=O): 441 nm | absorption maximum (in ClCCl): 442 nm

N#C/C(=C\c1ccc(C#N)cc1)c1nc(-c2ccccc2)c(-c2ccccc2)s1
absorption maximum (in CC#N): 379 nm

c1ccc(N(c2ccccc2)c2ccc(-c3ccc(-c4nc(-c5ccccn5)n(-c5ccccc5)n4)cc3)cc2)cc1
absorption maximum (in ClCCl): 349 nm

c1ccc2c(c1)c1ccccc1n2-c1ccc(-c2cc3ccc(-c4ccc5cc(-c6ccc(-n7c8ccccc8c8ccccc87)cc6)oc5c4)cc3o2)cc1
absorption maximum (in Cc1ccccc1): 365 nm | absorption maximum (in c1ccc2c(c1)c1ccccc1n2-c1ccc(-c2ccc(-n3c4ccccc4c4ccccc43)cc2)cc1): 376 nm

Cc1cc(-c2ccc(C(C)(C)C)cc2)c2nsnc2c1-c1ccc(C(C)(C)C)cc1
absorption maximum (in ClCCl): 376 nm

CCn1c(=O)nc2n(C)c3cc(C)ccc3nc-2c1=O
absorption maximum (in C1COCCO1): 443 nm | absorption maximum (in CC#N): 445 nm | absorption maximum (in CO): 446 nm | absorption maximum (in ClCCCl): 448 nm

CCOC(=O)CN1C(=O)C2=C(c3ccccc3)N(CC(=O)OCC)C(=O)C2=C1c1ccccc1
absorption maximum (in CC#N): 454 nm | absorption maximum (in CS(C)=O): 460 nm | absorption maximum (in Cc1ccccc1): 462 nm

c1ccc([B-]2(c3ccccc3)Oc3ccc4ccccc4c3-c3c4ccccc4cn[n+]32)cc1
absorption maximum (in Cc1ccccc1): 436 nm

FC(F)(F)c1ccc(-c2ncc3ccccn23)cc1
absorption maximum (in ClC(Cl)Cl): 340 nm

COc1ccc(N(c2ccc(OC)cc2)c2ccc3c(c2)C2(c4cc(N(c5ccc(OC)cc5)c5ccc(OC)cc5)ccc4C=C3)c3ccccc3-c3ccccc32)cc1
absorption maximum (in ClCCl): 414 nm

CCN(CC)c1ccc(/C=C/c2cc(/C=C/c3ccc(N(CC)CC)cc3)nc(N)n2)cc1
absorption maximum (in Cc1ccccc1): 418 nm | absorption maximum (in ClC(Cl)Cl): 433 nm

COc1ccc(C2=C(c3ccc(C)cc3)C(c3ccccc3)=[N+]3C2=Nc2c(-c4ccc(OC)cc4)c(-c4ccc(C)cc4)c(-c4ccccc4)n2[B-]3(F)F)cc1
absorption maximum (in Cc1ccccc1): 656 nm

C=CCOc1nnc(OCCC(F)(F)C(F)(F)C(F)(F)C(F)(F)C(F)(F)C(F)(F)C(F)(F)C(F)(F)F)nn1
absorption maximum (in ClCCl): 526 nm | absorption maximum (in OCC(F)(F)F): 512 nm

Cc1c(C)c2c3ccccc3[nH]c2c2ccccc12
absorption maximum (in ClCCl): 302 nm

CCCCCCCCCCCCCCCCCC(=O)Oc1cc2[nH]c(cc2CCOC)c2nc(ccc3[nH]c(cc3CCOC)c3nc1C(CCOC)=C3)C(CCOC)=C2
absorption maximum (in Cc1ccccc1): 646 nm

COc1ccc(-c2cnc(/C=C/c3ccc(C#N)cc3)o2)cc1OC
absorption maximum (in ClCCl): 370 nm

O=c1c2cc(F)c(O)cc2oc2cc(O)c(F)cc12
absorption maximum (in CCO): 369 nm

Cc1ccc(N(c2ccc(C)cc2)c2ccc(-c3ccc(C=C(C#N)C#N)o3)cc2)cc1
absorption maximum (in ClC(Cl)Cl): 521 nm

c1ccc2cc3c(cc2c1)-c1cccc2cc4ccccc4c-3c12
absorption maximum (in CCCCCCC): 469 nm

CC(C)(C)c1ccc2oc3nc4oc5ccc(-n6c7ccccc7c7cc(-n8c9ccccc9c9ccccc98)ccc76)cc5c4cc3c2c1
absorption maximum (in ClC(Cl)Cl): 348 nm

CCN(CC)c1ccc(/C=N/C(C#N)=C(C#N)/N=C/c2ccc(N(CC)CC)cc2O)c(O)c1
absorption maximum (in CC#N): 565 nm | absorption maximum (in CN(C)C=O): 571 nm | absorption maximum (in ClCCl): 570 nm

CN(C)c1ccc(/C=C/c2ccc(-c3nnc(-c4ccc(-c5cc6ccccc6s5)cc4)o3)cc2)cc1
absorption maximum (in CC#N): 334 nm | absorption maximum (in CC(C)=O): 337 nm | absorption maximum (in CCCCCCCC): 334 nm | absorption maximum (in CCCCCCCCCCO): 344 nm | absorption maximum (in CCCCCCCCO): 343 nm | absorption maximum (in CCCCCO): 341 nm | absorption maximum (in CCCO): 341 nm | absorption maximum (in CN(C)C=O): 338 nm | absorption maximum (in CO): 335 nm | absorption maximum (in CS(C)=O): 340 nm

c1ccc(C2CSC(c3c4ccc(=[N+]5CCCCC5)cc-4oc4cc(N5CCCCC5)ccc34)SC2)cc1 (stereo unspecified)
absorption maximum (in CO): 584.58 nm

CCCCCCCCCCCCN1C(=O)c2c(c3ccc4cc(-c5ccccc5)c(OC)cc4c3c3c2ccc2cc(-c4ccccc4)c(OC)cc23)C1=O
absorption maximum (in ClCCl): 432 nm

N#Cc1c(N2CCCCC2)cc(-c2ccc3ccccc3c2)c2c1C(=O)c1ccccc1-2
absorption maximum (in C1CCOC1): 346 nm

Cc1ccc(C2=C(c3ccc(C)cc3)c3cccc4c3c(cc3nc5ccccc5nc34)O2)cc1
absorption maximum (in ClCCl): 498 nm

CCCCC(CC)COc1cc(OCC(CC)CCCC)c2c#cc3ccc4c(c3)c3cc(c#cc5cc(c#cc6ccc7c(c6)c6cc(c#cc1c2)ccc6n7CC(CC)CCCC)c(C(CCCC)OCCC)cc5C(CCCC)OCCC)ccc3n4CC(CC)CCCC (stereo unspecified)
absorption maximum (in ClCCl): 340 nm

O=C1O/C(=C\c2ccccc2)c2ccccc21
absorption maximum (in CC#N): 335 nm

Cc1cc(C)c(B(c2cc(C#Cc3ccccc3)sc2-c2sc(C#Cc3ccccc3)cc2P(=O)(c2ccccc2)c2ccccc2)c2c(C)cc(C)cc2C)c(C)c1
absorption maximum (in CO): 400 nm

CC/[NH+]=c1\cc2oc3cc(NCCN)c4ccccc4c3nc-2cc1C
absorption maximum (in CCO): 590 nm | absorption maximum (in O): 590 nm

c1ccc(COc2cc(C[n+]3ccc(-c4cc[n+](Cc5cc(OCc6ccccc6)cc(OCc6ccccc6)c5)cc4)cc3)cc(OCc3ccccc3)c2)cc1
absorption maximum (in CC#N): 261 nm

N#Cc1nn(-c2ccc(Cl)cc2)nc1N1CCCC1
absorption maximum (in CC#N): 346 nm

Oc1ccc(-c2cccs2)cc1-c1nc2ccccc2s1
absorption maximum (in CCO): 360 nm | absorption maximum (in O): 361 nm

c1ccc(N(c2ccccc2)c2ccc(-c3ccc(-c4cc(-c5ccccn5)nc(-c5ccccn5)c4)cc3)cc2)cc1
absorption maximum (in ClCCl): 284 nm
